Results reported in PubChem BioAssay (NCI).
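Method: 48-hour compound exposure of cells in 96-well plates, five concentrations, linear interpolation of endpoints. Definition used: TGI = concentration required for complete inhibition of growth.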

Tests used:
Assay in all cases: NCI tumour cell line growth inhibition, 48 h
786-0 renal = tested on: 786-0 renal
A498 renal = tested on: A498 renal
A549 NSCLC = tested on: A549 NSCLC
ACHN renal = tested on: ACHN renal
BT-549 breast = tested on: BT-549 breast
CAKI-1 renal = tested on: CAKI-1 renal
CCRF-CEM leukemia = tested on: CCRF-CEM leukemia
COLO 205 colon = tested on: COLO 205 colon
DU-145 prostate = tested on: DU-145 prostate
EKVX NSCLC = tested on: EKVX NSCLC
HCT-116 colon = tested on: HCT-116 colon
HCT-15 colon = tested on: HCT-15 colon
HL-60(TB) leukemia = tested on: HL-60(TB) leukemia
HOP-62 NSCLC = tested on: HOP-62 NSCLC
HOP-92 NSCLC = tested on: HOP-92 NSCLC
HS 578T breast = tested on: HS 578T breast
HT29 colon = tested on: HT29 colon
IGROV1 ovarian = tested on: IGROV1 ovarian
K-562 leukemia = tested on: K-562 leukemia
KM12 colon = tested on: KM12 colon
M14 melanoma = tested on: M14 melanoma
MALME-3M melanoma = tested on: MALME-3M melanoma
MCF7 breast = tested on: MCF7 breast
MDA-MB-231 breast = tested on: MDA-MB-231 breast
MDA-MB-435 = tested on: MDA-MB-435
MDA-N = tested on: MDA-N
MOLT-4 leukemia = tested on: MOLT-4 leukemia
NCI-H226 lung = tested on: NCI-H226 lung
NCI-H23 lung = tested on: NCI-H23 lung
NCI-H460 lung = tested on: NCI-H460 lung
NCI-H522 lung = tested on: NCI-H522 lung
NCI/ADR-RES ovarian = tested on: NCI/ADR-RES ovarian
OVCAR-3 ovarian = tested on: OVCAR-3 ovarian
OVCAR-4 ovarian = tested on: OVCAR-4 ovarian
OVCAR-5 ovarian = tested on: OVCAR-5 ovarian
OVCAR-8 ovarian = tested on: OVCAR-8 ovarian
PC-3 prostate = tested on: PC-3 prostate
RPMI-8226 leukemia = tested on: RPMI-8226 leukemia
RXF 393 renal = tested on: RXF 393 renal
SF-268 CNS = tested on: SF-268 CNS
SF-295 CNS = tested on: SF-295 CNS
SF-539 CNS = tested on: SF-539 CNS
SK-MEL-2 melanoma = tested on: SK-MEL-2 melanoma
SK-MEL-28 melanoma = tested on: SK-MEL-28 melanoma
SK-MEL-5 melanoma = tested on: SK-MEL-5 melanoma
SK-OV-3 ovarian = tested on: SK-OV-3 ovarian
SN12C renal = tested on: SN12C renal
SNB-19 CNS = tested on: SNB-19 CNS
SNB-75 CNS = tested on: SNB-75 CNS
SR leukemia = tested on: SR leukemia
SW-620 colon = tested on: SW-620 colon
T-47D breast = tested on: T-47D breast
TK-10 renal = tested on: TK-10 renal
U251 CNS = tested on: U251 CNS
UACC-257 melanoma = tested on: UACC-257 melanoma
UACC-62 melanoma = tested on: UACC-62 melanoma
HCC-2998 colon = tested on: HCC-2998 colon
LOX IMVI melanoma = tested on: LOX IMVI melanoma
UO-31 renal = tested on: UO-31 renal

Cc1cc(C)c2nc3c(c(C(O)C4CCCCN4)c2c1)CC/C3=C\c1ccc(Cl)cc1 (stereo not drawn)
TGI (786-0 renal): > 100 µM | TGI (A498 renal): > 100 µM | TGI (A549 NSCLC): > 100 µM | TGI (ACHN renal): > 100 µM | TGI (BT-549 breast): > 100 µM | TGI (CAKI-1 renal): > 100 µM | TGI (CCRF-CEM leukemia): > 100 µM | TGI (COLO 205 colon): > 100 µM | TGI (DU-145 prostate): > 100 µM | TGI (EKVX NSCLC): > 100 µM | TGI (HCT-116 colon): > 100 µM | TGI (HCT-15 colon): > 100 µM | TGI (HL-60(TB) leukemia): 67.6 µM | TGI (HOP-62 NSCLC): > 100 µM | TGI (HOP-92 NSCLC): > 100 µM | TGI (HS 578T breast): > 100 µM | TGI (HT29 colon): > 100 µM | TGI (IGROV1 ovarian): > 100 µM | TGI (K-562 leukemia): > 100 µM | TGI (KM12 colon): > 100 µM | TGI (M14 melanoma): > 100 µM | TGI (MALME-3M melanoma): > 100 µM | TGI (MCF7 breast): > 100 µM | TGI (MDA-MB-231 breast): > 100 µM | TGI (MDA-MB-435): > 100 µM | TGI (MDA-N): > 100 µM | TGI (MOLT-4 leukemia): > 100 µM | TGI (NCI-H226 lung): > 100 µM | TGI (NCI-H23 lung): > 100 µM | TGI (NCI-H460 lung): > 100 µM | TGI (NCI-H522 lung): > 100 µM | TGI (NCI/ADR-RES ovarian): > 100 µM | TGI (OVCAR-3 ovarian): > 100 µM | TGI (OVCAR-4 ovarian): > 100 µM | TGI (OVCAR-5 ovarian): > 100 µM | TGI (OVCAR-8 ovarian): > 100 µM | TGI (PC-3 prostate): > 100 µM | TGI (RPMI-8226 leukemia): > 100 µM | TGI (RXF 393 renal): > 100 µM | TGI (SF-268 CNS): > 100 µM | TGI (SF-295 CNS): > 100 µM | TGI (SF-539 CNS): > 100 µM | TGI (SK-MEL-2 melanoma): > 100 µM | TGI (SK-MEL-28 melanoma): > 100 µM | TGI (SK-MEL-5 melanoma): 92.2 µM | TGI (SK-OV-3 ovarian): > 100 µM | TGI (SN12C renal): > 100 µM | TGI (SNB-19 CNS): > 100 µM | TGI (SNB-75 CNS): > 100 µM | TGI (SR leukemia): > 100 µM | TGI (SW-620 colon): > 100 µM | TGI (T-47D breast): > 100 µM | TGI (TK-10 renal): > 100 µM | TGI (U251 CNS): > 100 µM | TGI (UACC-257 melanoma): > 100 µM | TGI (UACC-62 melanoma): > 100 µM

CC(C)=CCC[C@@H](C)C1=C(O)C(N[C@H](C)c2ccccc2)=C(C)C(=O)C1=O
TGI (786-0 renal): 20.7 µM | TGI (A498 renal): 32 µM | TGI (A549 NSCLC): 14.7 µM | TGI (ACHN renal): 17.1 µM | TGI (BT-549 breast): 67 µM | TGI (CAKI-1 renal): 46.9 µM | TGI (COLO 205 colon): 20 µM | TGI (DU-145 prostate): 38.9 µM | TGI (EKVX NSCLC): > 100 µM | TGI (HCC-2998 colon): 31.3 µM | TGI (HCT-116 colon): 20.4 µM | TGI (HCT-15 colon): > 63.2 µM | TGI (HL-60(TB) leukemia): 10.8 µM | TGI (HOP-62 NSCLC): 20 µM | TGI (HOP-92 NSCLC): 35.6 µM | TGI (HS 578T breast): 36.7 µM | TGI (HT29 colon): 14.1 µM | TGI (IGROV1 ovarian): > 36.2 µM | TGI (K-562 leukemia): > 60.7 µM | TGI (KM12 colon): > 46 µM | TGI (LOX IMVI melanoma): 22.1 µM | TGI (M14 melanoma): > 31.7 µM | TGI (MALME-3M melanoma): 14.6 µM | TGI (MCF7 breast): 17.9 µM | TGI (MDA-MB-231 breast): 35.6 µM | TGI (MDA-MB-435): > 62.3 µM | TGI (MDA-N): 44.2 µM | TGI (MOLT-4 leukemia): > 30.1 µM | TGI (NCI-H226 lung): 21.1 µM | TGI (NCI-H23 lung): 34.2 µM | TGI (NCI-H460 lung): > 40 µM | TGI (NCI-H522 lung): 8.67 µM | TGI (NCI/ADR-RES ovarian): 4.23 µM | TGI (OVCAR-3 ovarian): > 100 µM | TGI (OVCAR-4 ovarian): > 60.1 µM | TGI (OVCAR-5 ovarian): > 72.1 µM | TGI (OVCAR-8 ovarian): > 24.1 µM | TGI (PC-3 prostate): > 100 µM | TGI (RPMI-8226 leukemia): 22.2 µM | TGI (RXF 393 renal): 25 µM | TGI (SF-268 CNS): > 64.3 µM | TGI (SF-295 CNS): 16.9 µM | TGI (SF-539 CNS): 10.2 µM | TGI (SK-MEL-2 melanoma): 29.3 µM | TGI (SK-MEL-28 melanoma): > 46.7 µM | TGI (SK-MEL-5 melanoma): 13.1 µM | TGI (SK-OV-3 ovarian): 45.4 µM | TGI (SN12C renal): 53.2 µM | TGI (SNB-19 CNS): > 100 µM | TGI (SNB-75 CNS): > 56.4 µM | TGI (SR leukemia): > 100 µM | TGI (SW-620 colon): > 45.2 µM | TGI (T-47D breast): 24.8 µM | TGI (TK-10 renal): 26.3 µM | TGI (U251 CNS): > 100 µM | TGI (UACC-257 melanoma): 53.4 µM | TGI (UACC-62 melanoma): 9.71 µM | TGI (UO-31 renal): 38.9 µM

O=c1[nH]c2cc(Cl)ccc2nc1/C(=N\Nc1ccccc1)C(O)c1ccc2c(c1)OCO2 (stereo not drawn)
TGI (786-0 renal): > 100 µM | TGI (A498 renal): > 100 µM | TGI (A549 NSCLC): > 100 µM | TGI (ACHN renal): > 100 µM | TGI (BT-549 breast): > 100 µM | TGI (CAKI-1 renal): > 100 µM | TGI (CCRF-CEM leukemia): > 100 µM | TGI (COLO 205 colon): > 100 µM | TGI (DU-145 prostate): > 100 µM | TGI (EKVX NSCLC): > 100 µM | TGI (HCC-2998 colon): > 100 µM | TGI (HCT-116 colon): > 100 µM | TGI (HCT-15 colon): > 100 µM | TGI (HL-60(TB) leukemia): > 100 µM | TGI (HOP-62 NSCLC): > 100 µM | TGI (HOP-92 NSCLC): > 100 µM | TGI (HS 578T breast): > 100 µM | TGI (HT29 colon): > 100 µM | TGI (IGROV1 ovarian): > 100 µM | TGI (K-562 leukemia): > 100 µM | TGI (KM12 colon): > 100 µM | TGI (LOX IMVI melanoma): > 100 µM | TGI (M14 melanoma): > 100 µM | TGI (MALME-3M melanoma): > 100 µM | TGI (MCF7 breast): > 100 µM | TGI (MDA-MB-231 breast): > 100 µM | TGI (MDA-MB-435): > 100 µM | TGI (MDA-N): > 100 µM | TGI (MOLT-4 leukemia): > 100 µM | TGI (NCI-H226 lung): > 100 µM | TGI (NCI-H23 lung): > 100 µM | TGI (NCI-H460 lung): > 100 µM | TGI (NCI-H522 lung): > 100 µM | TGI (NCI/ADR-RES ovarian): > 100 µM | TGI (OVCAR-3 ovarian): > 100 µM | TGI (OVCAR-4 ovarian): > 100 µM | TGI (OVCAR-5 ovarian): > 100 µM | TGI (OVCAR-8 ovarian): > 100 µM | TGI (PC-3 prostate): > 100 µM | TGI (RPMI-8226 leukemia): > 100 µM | TGI (RXF 393 renal): > 100 µM | TGI (SF-268 CNS): > 100 µM | TGI (SF-295 CNS): > 100 µM | TGI (SF-539 CNS): > 100 µM | TGI (SK-MEL-2 melanoma): > 100 µM | TGI (SK-MEL-28 melanoma): > 100 µM | TGI (SK-MEL-5 melanoma): > 100 µM | TGI (SK-OV-3 ovarian): > 100 µM | TGI (SN12C renal): > 100 µM | TGI (SNB-19 CNS): > 100 µM | TGI (SNB-75 CNS): > 100 µM | TGI (SR leukemia): > 100 µM | TGI (SW-620 colon): > 100 µM | TGI (T-47D breast): > 100 µM | TGI (TK-10 renal): > 100 µM | TGI (U251 CNS): > 100 µM | TGI (UACC-257 melanoma): > 100 µM | TGI (UACC-62 melanoma): > 100 µM | TGI (UO-31 renal): > 100 µM
